Data from the kinase profiling compilation of Christmann-Franck et al. (2016).

Assays:
Assay in all cases: radiometric filter-binding kinase assay
[1] = molecular target: BRSK1 (human) (UniProt Q8TDC3)
[2] = molecular target: BTK (human) (UniProt Q06187)
[3] = molecular target: CAMKK2 (human) (UniProt Q96RR4)
[4] = molecular target: CDK2 CCNA2 (human) (UniProt P20248+P24941)
[5] = molecular target: CSK (human) (UniProt P41240)
[6] = molecular target: CaMK1 (human) (UniProt Q14012)
[7] = molecular target: DYRK2 (human) (UniProt Q92630)
[8] = molecular target: EPHA2 (human) (UniProt P29317)
[9] = molecular target: EPHA4 (human) (UniProt P54764)
[10] = molecular target: EPHB2 (human) (UniProt P29323)
[11] = molecular target: ERBB4 (human) (UniProt Q15303)
[12] = molecular target: HIPK3 (human) (UniProt Q9H422)
[13] = molecular target: INSR (human) (UniProt P06213)
[14] = molecular target: INSRR (human) (UniProt P14616)
[15] = molecular target: JAK2 JH1 JH2 (human) (UniProt O60674)
[16] = test system: LCK (mouse); settings: accession and sequence are those of the human protein
[17] = molecular target: MAP2K1 (human) (UniProt Q02750)
[18] = molecular target: MAPK15 (human) (UniProt Q8TD08)
[19] = molecular target: MAPKAPK2 (human) (UniProt P49137)
[20] = molecular target: MARK1 (human) (UniProt Q9P0L2)
[21] = molecular target: MARK2 (human) (UniProt Q7KZI7)
[22] = molecular target: MINK1 (human) (UniProt Q8N4C8)
[23] = molecular target: MKNK1 (human) (UniProt Q9BUB5)
[24] = molecular target: MST4 (human) (UniProt Q9P289)
[25] = molecular target: NEK2 (human) (UniProt P51955)
[26] = molecular target: NEK6 (human) (UniProt Q9HC98)
[27] = molecular target: NUAK1 (human) (UniProt O60285)
[28] = molecular target: PAK7 (human) (UniProt Q9P286)
[29] = molecular target: PHKG1 (human) (UniProt Q16816)
[30] = molecular target: PRKACA (human) (UniProt P17612)
[31] = molecular target: PRKCA (human) (UniProt P17252)
[32] = molecular target: RIPK2 (human) (UniProt O43353)
[33] = molecular target: RPS6KA5 KD1 KD2 (human) (UniProt O75582)
[34] = molecular target: SRPK1 (human) (UniProt Q96SB4)
[35] = test system: PRKAA1 or PRKAA2 (rat); settings: compound 10.0 µM; accession and sequence are those of the human protein

Chain of DYRK2 (human) (Q92630 whole entry, looked up): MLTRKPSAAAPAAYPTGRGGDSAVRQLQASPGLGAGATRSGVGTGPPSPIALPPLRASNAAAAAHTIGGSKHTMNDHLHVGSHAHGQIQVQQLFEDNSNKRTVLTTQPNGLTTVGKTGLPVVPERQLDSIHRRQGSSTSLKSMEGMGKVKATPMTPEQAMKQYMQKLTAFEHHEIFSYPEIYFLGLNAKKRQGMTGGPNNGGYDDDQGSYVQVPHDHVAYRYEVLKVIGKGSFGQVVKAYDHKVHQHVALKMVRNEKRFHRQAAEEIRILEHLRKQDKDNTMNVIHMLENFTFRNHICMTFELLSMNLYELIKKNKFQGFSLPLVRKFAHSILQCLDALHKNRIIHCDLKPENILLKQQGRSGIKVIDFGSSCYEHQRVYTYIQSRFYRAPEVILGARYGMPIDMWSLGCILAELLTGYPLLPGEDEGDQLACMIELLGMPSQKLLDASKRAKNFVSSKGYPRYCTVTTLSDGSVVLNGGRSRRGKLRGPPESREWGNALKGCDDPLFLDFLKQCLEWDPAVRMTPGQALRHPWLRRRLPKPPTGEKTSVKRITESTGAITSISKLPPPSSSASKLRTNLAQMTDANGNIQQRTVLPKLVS
Chain of INSR (human) (P06213 whole entry, looked up): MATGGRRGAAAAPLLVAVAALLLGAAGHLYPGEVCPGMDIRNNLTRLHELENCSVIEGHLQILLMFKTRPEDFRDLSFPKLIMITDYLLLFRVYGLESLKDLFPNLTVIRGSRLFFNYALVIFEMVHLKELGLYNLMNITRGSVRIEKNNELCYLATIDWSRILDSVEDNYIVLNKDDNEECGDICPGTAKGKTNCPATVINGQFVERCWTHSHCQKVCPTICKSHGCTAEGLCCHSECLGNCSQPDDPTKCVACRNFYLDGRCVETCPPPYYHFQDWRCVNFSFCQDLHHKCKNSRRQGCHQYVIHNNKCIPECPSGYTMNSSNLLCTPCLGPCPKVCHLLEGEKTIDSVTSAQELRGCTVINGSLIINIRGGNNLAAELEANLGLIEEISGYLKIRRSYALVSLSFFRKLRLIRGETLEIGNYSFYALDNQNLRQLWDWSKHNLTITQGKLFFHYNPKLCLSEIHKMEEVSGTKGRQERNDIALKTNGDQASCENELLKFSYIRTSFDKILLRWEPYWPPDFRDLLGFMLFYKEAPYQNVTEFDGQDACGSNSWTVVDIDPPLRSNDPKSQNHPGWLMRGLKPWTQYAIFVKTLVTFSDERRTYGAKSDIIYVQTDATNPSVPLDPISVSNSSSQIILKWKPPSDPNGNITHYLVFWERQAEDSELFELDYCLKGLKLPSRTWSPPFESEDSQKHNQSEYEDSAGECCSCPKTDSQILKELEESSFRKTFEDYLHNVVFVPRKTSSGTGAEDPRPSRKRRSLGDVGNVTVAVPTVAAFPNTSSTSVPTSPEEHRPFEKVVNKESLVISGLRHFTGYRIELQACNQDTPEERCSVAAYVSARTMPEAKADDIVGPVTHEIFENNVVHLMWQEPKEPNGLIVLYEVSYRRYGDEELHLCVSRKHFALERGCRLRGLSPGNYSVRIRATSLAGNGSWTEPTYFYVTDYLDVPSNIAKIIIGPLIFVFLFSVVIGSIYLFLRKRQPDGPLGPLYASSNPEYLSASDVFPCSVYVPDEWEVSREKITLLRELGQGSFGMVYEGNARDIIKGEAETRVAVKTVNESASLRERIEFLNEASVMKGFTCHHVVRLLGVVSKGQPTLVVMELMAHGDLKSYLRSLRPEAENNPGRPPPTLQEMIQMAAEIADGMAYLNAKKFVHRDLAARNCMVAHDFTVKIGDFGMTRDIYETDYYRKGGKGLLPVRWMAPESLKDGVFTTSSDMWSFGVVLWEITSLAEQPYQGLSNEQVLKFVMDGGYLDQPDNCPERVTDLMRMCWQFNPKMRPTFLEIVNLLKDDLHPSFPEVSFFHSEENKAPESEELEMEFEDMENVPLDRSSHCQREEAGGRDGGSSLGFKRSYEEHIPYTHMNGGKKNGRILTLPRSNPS
Chain of CAMKK2 (human) (Q96RR4 whole entry, looked up): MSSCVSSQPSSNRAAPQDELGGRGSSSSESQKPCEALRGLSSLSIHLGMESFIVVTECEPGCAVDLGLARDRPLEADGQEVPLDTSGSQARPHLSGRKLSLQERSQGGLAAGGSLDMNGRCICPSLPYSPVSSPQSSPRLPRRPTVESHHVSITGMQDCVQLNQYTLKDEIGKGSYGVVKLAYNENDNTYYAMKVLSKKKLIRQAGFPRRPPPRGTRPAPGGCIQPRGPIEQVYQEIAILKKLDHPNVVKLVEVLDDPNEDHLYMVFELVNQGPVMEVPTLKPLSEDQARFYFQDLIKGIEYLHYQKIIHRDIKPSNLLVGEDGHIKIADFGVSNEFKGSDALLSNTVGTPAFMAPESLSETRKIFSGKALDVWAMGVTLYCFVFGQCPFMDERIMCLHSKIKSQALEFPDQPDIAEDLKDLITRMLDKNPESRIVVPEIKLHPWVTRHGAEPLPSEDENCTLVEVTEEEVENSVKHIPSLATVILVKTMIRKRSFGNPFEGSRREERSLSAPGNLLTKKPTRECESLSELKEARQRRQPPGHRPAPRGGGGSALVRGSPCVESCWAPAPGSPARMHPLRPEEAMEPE
Chain of EPHA2 (human) (P29317 whole entry, looked up): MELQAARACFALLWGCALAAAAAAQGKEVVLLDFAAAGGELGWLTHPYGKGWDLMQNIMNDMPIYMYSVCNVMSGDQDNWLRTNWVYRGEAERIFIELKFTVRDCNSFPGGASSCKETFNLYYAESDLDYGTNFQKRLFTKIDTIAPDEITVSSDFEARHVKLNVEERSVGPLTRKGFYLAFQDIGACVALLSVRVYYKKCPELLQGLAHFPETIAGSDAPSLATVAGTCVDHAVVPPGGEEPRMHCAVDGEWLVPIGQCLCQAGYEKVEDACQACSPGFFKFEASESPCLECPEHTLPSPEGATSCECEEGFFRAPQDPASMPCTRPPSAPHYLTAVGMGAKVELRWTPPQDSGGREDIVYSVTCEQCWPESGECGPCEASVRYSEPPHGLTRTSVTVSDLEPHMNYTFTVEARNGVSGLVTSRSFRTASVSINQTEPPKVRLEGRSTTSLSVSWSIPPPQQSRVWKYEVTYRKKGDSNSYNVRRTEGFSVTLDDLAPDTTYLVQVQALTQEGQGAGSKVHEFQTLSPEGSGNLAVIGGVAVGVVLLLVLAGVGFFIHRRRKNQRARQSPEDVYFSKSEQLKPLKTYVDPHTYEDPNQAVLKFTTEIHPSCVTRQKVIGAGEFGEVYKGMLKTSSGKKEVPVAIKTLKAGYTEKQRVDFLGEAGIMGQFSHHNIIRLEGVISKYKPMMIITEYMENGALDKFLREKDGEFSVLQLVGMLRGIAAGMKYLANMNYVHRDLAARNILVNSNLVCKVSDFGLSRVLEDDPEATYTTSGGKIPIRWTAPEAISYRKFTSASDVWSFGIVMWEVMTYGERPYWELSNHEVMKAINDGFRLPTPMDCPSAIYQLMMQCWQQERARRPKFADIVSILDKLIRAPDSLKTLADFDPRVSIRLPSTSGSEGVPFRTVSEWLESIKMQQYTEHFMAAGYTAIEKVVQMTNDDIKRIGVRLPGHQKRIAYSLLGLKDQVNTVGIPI
Chain of NEK6 (human) (Q9HC98 whole entry, looked up): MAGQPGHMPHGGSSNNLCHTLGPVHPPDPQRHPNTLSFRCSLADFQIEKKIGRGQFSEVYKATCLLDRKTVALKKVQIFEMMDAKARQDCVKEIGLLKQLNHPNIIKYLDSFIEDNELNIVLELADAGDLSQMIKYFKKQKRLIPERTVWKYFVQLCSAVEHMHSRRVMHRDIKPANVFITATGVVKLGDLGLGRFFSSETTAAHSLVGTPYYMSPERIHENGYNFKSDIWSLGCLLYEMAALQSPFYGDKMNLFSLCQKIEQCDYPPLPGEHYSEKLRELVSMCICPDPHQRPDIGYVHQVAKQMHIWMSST
Chain of MARK2 (human) (Q7KZI7 whole entry, looked up): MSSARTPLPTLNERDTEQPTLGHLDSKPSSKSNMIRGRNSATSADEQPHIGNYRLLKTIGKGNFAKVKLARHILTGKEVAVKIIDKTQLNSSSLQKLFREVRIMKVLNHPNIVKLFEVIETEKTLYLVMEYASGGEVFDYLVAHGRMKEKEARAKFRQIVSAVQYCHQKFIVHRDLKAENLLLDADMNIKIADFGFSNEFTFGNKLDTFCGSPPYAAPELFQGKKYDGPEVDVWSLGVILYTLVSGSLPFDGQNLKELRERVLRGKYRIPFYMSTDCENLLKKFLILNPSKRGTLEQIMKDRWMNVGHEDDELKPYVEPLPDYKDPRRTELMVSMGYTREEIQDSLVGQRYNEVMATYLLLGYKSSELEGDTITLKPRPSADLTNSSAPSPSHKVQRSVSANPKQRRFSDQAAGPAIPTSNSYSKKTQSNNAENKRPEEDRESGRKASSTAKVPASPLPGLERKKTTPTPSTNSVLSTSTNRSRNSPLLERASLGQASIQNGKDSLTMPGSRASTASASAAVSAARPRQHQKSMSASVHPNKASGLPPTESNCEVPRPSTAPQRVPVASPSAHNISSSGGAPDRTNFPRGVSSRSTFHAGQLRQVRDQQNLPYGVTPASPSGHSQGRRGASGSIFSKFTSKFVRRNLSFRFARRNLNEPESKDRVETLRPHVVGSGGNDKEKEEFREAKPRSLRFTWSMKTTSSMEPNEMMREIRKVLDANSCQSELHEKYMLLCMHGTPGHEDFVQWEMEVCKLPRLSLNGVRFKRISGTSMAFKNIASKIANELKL
Chain of CaMK1 (human) (Q14012 whole entry, looked up): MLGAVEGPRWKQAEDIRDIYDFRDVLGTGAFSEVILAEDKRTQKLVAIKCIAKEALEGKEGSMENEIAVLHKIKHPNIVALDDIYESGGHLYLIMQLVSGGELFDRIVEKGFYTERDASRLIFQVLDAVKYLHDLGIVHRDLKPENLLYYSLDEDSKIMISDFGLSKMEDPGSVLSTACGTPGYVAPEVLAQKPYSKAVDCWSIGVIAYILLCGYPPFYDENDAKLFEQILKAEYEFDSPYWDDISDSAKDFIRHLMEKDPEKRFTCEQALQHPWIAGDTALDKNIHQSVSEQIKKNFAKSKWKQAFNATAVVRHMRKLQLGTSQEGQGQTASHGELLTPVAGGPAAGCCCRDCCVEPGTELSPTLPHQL

With `O=C(NCCCNc1nc(Nc2cccc(CN3CCOCC3)c2)ncc1C1CC1)C1CCC1` the residual activity ([1]; compound 0.1 µM) was 99%, the residual activity ([1]; compound 1.0 µM) was 82% and the residual activity ([2]; compound 0.1 µM) was 89%. The residual activity ([2]; compound 1.0 µM) was 77%, the residual activity ([3]; compound 0.1 µM) was 58% and the residual activity ([3]; compound 1.0 µM) was 21%. It also gave a residual activity ([4]; compound 0.1 µM) of 86%, a residual activity ([4]; compound 1.0 µM) of 47% and a residual activity ([5]; compound 0.1 µM) of 98%. For the same compound, the residual activity ([5]; compound 1.0 µM) was 112%, the residual activity ([6]; compound 0.1 µM) was 104% and the residual activity ([6]; compound 1.0 µM) was 101%. For the same compound, the residual activity ([7]; compound 0.1 µM) was 92%, the residual activity ([7]; compound 1.0 µM) was 101% and the residual activity ([8]; compound 0.1 µM) was 95%. For the same compound, the residual activity ([8]; compound 1.0 µM) was 98%, the residual activity ([9]; compound 0.1 µM) was 103% and the residual activity ([9]; compound 1.0 µM) was 114%. The residual activity ([10]; compound 0.1 µM) was 88%, the residual activity ([10]; compound 1.0 µM) was 78% and the residual activity ([11]; compound 0.1 µM) was 90%. For the same compound, the residual activity ([11]; compound 1.0 µM) was 95%, the residual activity ([12]; compound 0.1 µM) was 91% and the residual activity ([12]; compound 1.0 µM) was 108%. For the same compound, the residual activity ([13]; compound 0.1 µM) was 97%, the residual activity ([13]; compound 1.0 µM) was 100% and the residual activity ([14]; compound 0.1 µM) was 107%. It also gave a residual activity ([14]; compound 1.0 µM) of 118%, a residual activity ([15]; compound 0.1 µM) of 41% and a residual activity ([15]; compound 1.0 µM) of 14%. For the same compound, the residual activity ([16]; compound 0.1 µM) was 80%, the residual activity ([16]; compound 1.0 µM) was 67% and the residual activity ([17]; compound 0.1 µM) was 92%. For the same compound, the residual activity ([17]; compound 1.0 µM) was 84%, the residual activity ([18]; compound 0.1 µM) was 81% and the residual activity ([18]; compound 1.0 µM) was 34%. It also gave a residual activity ([19]; compound 0.1 µM) of 106%, a residual activity ([19]; compound 1.0 µM) of 114% and a residual activity ([20]; compound 0.1 µM) of 16%. It also gave a residual activity ([20]; compound 1.0 µM) of 9%, a residual activity ([21]; compound 0.1 µM) of 27% and a residual activity ([21]; compound 1.0 µM) of 10%. It also gave a residual activity ([22]; compound 0.1 µM) of 123%, a residual activity ([22]; compound 1.0 µM) of 103% and a residual activity ([23]; compound 0.1 µM) of 89%. It also gave a residual activity ([23]; compound 1.0 µM) of 96%, a residual activity ([24]; compound 0.1 µM) of 87% and a residual activity ([24]; compound 1.0 µM) of 94%. It also gave a residual activity ([25]; compound 0.1 µM) of 107%, a residual activity ([25]; compound 1.0 µM) of 97% and a residual activity ([26]; compound 0.1 µM) of 94%. For the same compound, the residual activity ([26]; compound 1.0 µM) was 90%, the residual activity ([27]; compound 0.1 µM) was 47% and the residual activity ([27]; compound 1.0 µM) was 11%. For the same compound, the residual activity ([28]; compound 0.1 µM) was 95%, the residual activity ([28]; compound 1.0 µM) was 88% and the residual activity ([29]; compound 0.1 µM) was 78%. For the same compound, the residual activity ([29]; compound 1.0 µM) was 28%, the residual activity ([30]; compound 0.1 µM) was 90% and the residual activity ([30]; compound 1.0 µM) was 100%. For the same compound, the residual activity ([31]; compound 0.1 µM) was 79%, the residual activity ([31]; compound 1.0 µM) was 93% and the residual activity ([32]; compound 0.1 µM) was 109%. For the same compound, the residual activity ([32]; compound 1.0 µM) was 112%, the residual activity ([33]; compound 0.1 µM) was 98% and the residual activity ([33]; compound 1.0 µM) was 68%. It also gave a residual activity ([34]; compound 0.1 µM) of 86% and a residual activity ([34]; compound 1.0 µM) of 101%.
`CC(C)C[C@H](NC(=O)CNC(=O)c1cc(Cl)ccc1Cl)B1OC(=O)CC(CC(=O)O)(C(=O)O)O1` (some centres not stated) was tested, and the residual activity ([1]; compound 10.0 µM) was 90%, the residual activity ([2]; compound 10.0 µM) was 90% and the residual activity ([3]; compound 10.0 µM) was 86%. For the same compound, the residual activity ([4]; compound 10.0 µM) was 86%, the residual activity ([5]; compound 10.0 µM) was 69% and the residual activity ([6]; compound 10.0 µM) was 80%. It also gave a residual activity ([7]; compound 10.0 µM) of 94%, a residual activity ([8]; compound 10.0 µM) of 98% and a residual activity ([9]; compound 10.0 µM) of 69%. It also gave a residual activity ([10]; compound 10.0 µM) of 95%, a residual activity ([11]; compound 10.0 µM) of 72% and a residual activity ([12]; compound 10.0 µM) of 118%. For the same compound, the residual activity ([13]; compound 10.0 µM) was 58%, the residual activity ([14]; compound 10.0 µM) was 104% and the residual activity ([15]; compound 10.0 µM) was 104%. For the same compound, the residual activity ([16]; compound 10.0 µM) was 81%, the residual activity ([17]; compound 10.0 µM) was 92% and the residual activity ([18]; compound 10.0 µM) was 100%. For the same compound, the residual activity ([19]; compound 10.0 µM) was 88%, the residual activity ([20]; compound 10.0 µM) was 81% and the residual activity ([21]; compound 10.0 µM) was 81%. The residual activity ([22]; compound 10.0 µM) was 73%, the residual activity ([23]; compound 10.0 µM) was 79% and the residual activity ([24]; compound 10.0 µM) was 122%. It also gave a residual activity ([25]; compound 10.0 µM) of 94%, a residual activity ([26]; compound 10.0 µM) of 82% and a residual activity ([27]; compound 10.0 µM) of 78%. The residual activity ([28]; compound 10.0 µM) was 94%, the residual activity ([29]; compound 10.0 µM) was 44% and the residual activity [35] was 82%. It also gave a residual activity ([30]; compound 10.0 µM) of 95%, a residual activity ([31]; compound 10.0 µM) of 113% and a residual activity ([32]; compound 10.0 µM) of 91%. The residual activity ([34]; compound 10.0 µM) was 90%.
